# Source: patent publication US9675595B2, “Synergistic combinations of PI3K- and MEK-inhibitors” (Novartis AG, priority 2011, dated 2017)
# System: Melanoma cell lines
# Test: Cell line testing, dose matrix, Example 3, melanoma panel
# Format: cell-based
# Details: melanoma lines with activating NRAS mutation and BRAF mutants
# Procedure: The combination of PI3K inhibitor COMPOUND A and MEK inhibitor COMPOUND B, as defined above, was tested across 38 cell lines from three tissue types (7 pancreas, 10 lung, and 21 melanoma). Each combination was tested in a partially-filled “dose matrix” constructed as follows: Each single drug was dispensed into growth media at a top concentration (11 μM for COMPOUND A or 2.7 μM for COMPOUND B), and serially diluted by 3× to yield a 7 point series covering a factor of 729 in concentration. The compounds were then combined at all pairs of the 2nd through the 6th concentrations, and this dose matrix was extended by also combining the top and bottom concentrations with each other. […] In order to identify cytotoxic treatments, we also determined “Day 0” cell populations at the start of drug treatment.
# Cell responses at each treatment were measured using simple inhibitions I=1−T/V, where T is the treated well's raw response and V is the median untreated level between replicate wells on the plate. Cytotoxicity measurements were measured using a “Growth Inhibition” GI=1−(T−V0)/[T<V0? […] The “Synergy Score” SLoewe=ΣX,Y lnfX lnfY max(0,Idata) max(0,Idata−ILoewe) was calculated from the differences between the data Idata and the dose-additive surface ILoewe, across all combined concentrations X,Y, and weighted by the measured inhibition and the single agent dilution factors fX, fY. […]
compound,measurement,value
"Cc1nc(NC(=O)N2CCC[C@H]2C(N)=O)sc1-c1ccnc(C(C)(C)C(F)(F)F)c1 [COMPOUND A, (S)-pyrrolidine-1,2-dicarboxylic acid 2-amide 1-({4-methyl-5-[2-(2,2,2-trifluoro-1,1-dimethyl-ethyl)-pyridin-4-yl]-thiazol-2-yl}-amide)]",response as a single agent,weak responses
